Test results as given in ChEMBL document CHEMBL1147456, “Binding modes of 6,7 di-substituted 4-anilinoquinoline-3-carbonitriles to EGFR” (Bioorg Med Chem Lett, 2004).

Target: Epidermal growth factor receptor (Homo sapiens, UniProt P00533)
Assay: Concentration required to inhibit autophosphorylation of cytoplasmic domain of epidermal growth factor receptor (EGFR)

Epidermal growth factor receptor, sequence (P00533 whole entry, the tested form may be a part): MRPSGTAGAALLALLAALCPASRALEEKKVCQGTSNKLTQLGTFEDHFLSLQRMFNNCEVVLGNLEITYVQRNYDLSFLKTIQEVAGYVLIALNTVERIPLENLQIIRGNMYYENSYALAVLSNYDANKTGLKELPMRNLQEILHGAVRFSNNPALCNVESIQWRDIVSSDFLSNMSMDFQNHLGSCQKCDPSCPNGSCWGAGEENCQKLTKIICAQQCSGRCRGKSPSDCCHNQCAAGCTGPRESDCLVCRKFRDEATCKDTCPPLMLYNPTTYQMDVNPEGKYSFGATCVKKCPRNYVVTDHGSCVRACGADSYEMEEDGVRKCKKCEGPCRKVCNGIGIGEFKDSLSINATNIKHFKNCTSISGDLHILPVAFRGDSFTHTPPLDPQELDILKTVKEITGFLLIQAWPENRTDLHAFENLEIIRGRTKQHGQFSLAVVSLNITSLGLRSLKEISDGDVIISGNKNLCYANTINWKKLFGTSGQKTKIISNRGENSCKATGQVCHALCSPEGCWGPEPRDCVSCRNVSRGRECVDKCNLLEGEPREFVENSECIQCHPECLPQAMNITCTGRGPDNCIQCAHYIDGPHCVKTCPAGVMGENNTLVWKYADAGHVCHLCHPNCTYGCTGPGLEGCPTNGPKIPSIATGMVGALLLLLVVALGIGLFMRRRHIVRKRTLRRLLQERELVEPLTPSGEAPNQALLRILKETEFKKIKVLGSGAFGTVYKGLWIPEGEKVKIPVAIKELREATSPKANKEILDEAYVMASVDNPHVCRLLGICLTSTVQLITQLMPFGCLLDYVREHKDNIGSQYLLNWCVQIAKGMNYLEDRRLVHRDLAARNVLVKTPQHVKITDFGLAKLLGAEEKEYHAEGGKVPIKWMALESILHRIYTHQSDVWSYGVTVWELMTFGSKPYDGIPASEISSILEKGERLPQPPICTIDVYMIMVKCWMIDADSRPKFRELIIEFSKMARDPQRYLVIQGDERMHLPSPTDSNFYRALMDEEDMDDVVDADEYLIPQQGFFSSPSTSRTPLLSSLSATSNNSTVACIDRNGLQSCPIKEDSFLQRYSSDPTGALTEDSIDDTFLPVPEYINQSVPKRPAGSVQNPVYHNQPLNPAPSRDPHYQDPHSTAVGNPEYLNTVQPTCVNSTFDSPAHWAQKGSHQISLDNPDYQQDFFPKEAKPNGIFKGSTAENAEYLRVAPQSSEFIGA

IC50: 0.15 µM
Structure (SMILES): COC[C@@H]1CCCN1CC#CC(=O)Nc1ccc2ncc(C#N)c(Nc3cccc(Br)c3)c2c1
